Measurements from PubChem BioAssay AID1963962 (Molecular Pharmacology Branch, DTP, NCI, 2024).
pIC50: −log10 of the molar value.

System: 967376-340-R-J2-PDC multicell spheroid viability
Experiment: Anticancer human tumor 967376-340-R-J2-PDC patient-derived colon adenocarcinoma cell line growth inhibition [PI3K]
Conditions: for pIC50: curve of first compound; for viability, T/C: stronger effect = lower value
Summary of the method: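 Stroma-containing spheroids: tumor line, pooled-donor HUVEC, hMSC. Treatments: targeted agents with PI3K inhibitors. Dosing: clinically relevant, half-log spacing, 10 microM ceiling without known Cmax. Read-out: cell viability.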

[1] = second compound 0.0316 µM, first compound 0.0316 µM
[2] = second compound 0.0316 µM, first compound 0.1 µM
[3] = second compound 0.0316 µM, first compound 0.316 µM
[4] = second compound 0.0316 µM, first compound 1 µM
[5] = second compound 0.0316 µM, first compound 3.16 µM
[6] = second compound 0.0316 µM, first compound 10 µM
[7] = second compound 0.1 µM, first compound 0.0316 µM
[8] = second compound 0.1 µM, first compound 0.1 µM
[9] = second compound 0.1 µM, first compound 0.316 µM
[10] = second compound 0.1 µM, first compound 1 µM
[11] = second compound 0.1 µM, first compound 3.16 µM
[12] = second compound 0.1 µM, first compound 10 µM
[13] = second compound 0.316 µM, first compound 0.0316 µM
[14] = second compound 0.316 µM, first compound 0.1 µM
[15] = second compound 0.316 µM, first compound 0.316 µM
[16] = second compound 0.316 µM, first compound 1 µM
[17] = second compound 0.316 µM, first compound 3.16 µM
[18] = second compound 0.316 µM, first compound 10 µM
[19] = second compound 1 µM, first compound 0.0316 µM
[20] = second compound 1 µM, first compound 0.1 µM
[21] = second compound 1 µM, first compound 0.316 µM
[22] = second compound 1 µM, first compound 1 µM
[23] = second compound 1 µM, first compound 3.16 µM
[24] = second compound 1 µM, first compound 10 µM
[25] = second compound 3.16 µM, first compound 0.0316 µM
[26] = second compound 3.16 µM, first compound 0.1 µM
[27] = second compound 3.16 µM, first compound 0.316 µM
[28] = second compound 3.16 µM, first compound 1 µM
[29] = second compound 3.16 µM, first compound 3.16 µM
[30] = second compound 3.16 µM, first compound 10 µM
[31] = second compound 10 µM, first compound 0.0316 µM
[32] = second compound 10 µM, first compound 0.1 µM
[33] = second compound 10 µM, first compound 0.316 µM
[34] = second compound 10 µM, first compound 1 µM
[35] = second compound 10 µM, first compound 3.16 µM
[36] = second compound 10 µM, first compound 10 µM
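Also: spheroids exposed to agents for 7 days before read-out.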
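For viability, T/C in this document: luminescence used as surrogate of cell viability.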

CC1(C)CCC(CN2CCN(c3ccc(C(=O)NS(=O)(=O)c4ccc(NCC5CCOCC5)c([N+](=O)[O-])c4)c(Oc4cnc5[nH]ccc5c4)c3)CC2)=C(c2ccc(Cl)cc2)C1 + CC(Nc1ncnc2nc[nH]c12)c1cc2cccc(Cl)c2c(=O)n1-c1ccccc1
pIC50 (second compound 0.0316 µM): < 5.00 | pIC50 (second compound 0.1 µM): < 5.00 | pIC50 (second compound 0.316 µM): < 5.00 | pIC50 (second compound 1 µM): < 5.00 | pIC50 (second compound 3.16 µM): < 5.00 | pIC50 (second compound 10 µM): < 5.00 | viability, T/C [1]: 92% | viability, T/C [2]: 83.4% | viability, T/C [3]: 98.1% | viability, T/C [4]: 83.8% | viability, T/C [5]: 75.6% | viability, T/C [6]: 92.2% | viability, T/C [7]: 95.1% | viability, T/C [8]: 79.7% | viability, T/C [9]: 82.7% | viability, T/C [10]: 87.3% | viability, T/C [11]: 86.3% | viability, T/C [12]: 75.2% | viability, T/C [13]: 102% | viability, T/C [14]: 101% | viability, T/C [15]: 83% | viability, T/C [16]: 83.1% | viability, T/C [17]: 86.5% | viability, T/C [18]: 71.6% | viability, T/C [19]: 88.5% | viability, T/C [20]: 115% | viability, T/C [21]: 116% | viability, T/C [22]: 87.8% | viability, T/C [23]: 79% | viability, T/C [24]: 74.1% | viability, T/C [25]: 90.4% | viability, T/C [26]: 86% | viability, T/C [27]: 67.6% | viability, T/C [28]: 82.9% | viability, T/C [29]: 79.1% | viability, T/C [30]: 101% | viability, T/C [31]: 55.1% | viability, T/C [32]: 73.3% | viability, T/C [33]: 83.4% | viability, T/C [34]: 74.7% | viability, T/C [35]: 68% | viability, T/C [36]: 76.3%

C[C@@H](NC(=O)c1ncnc(N)c1Cl)c1ncc(C(=O)Nc2cc(C(F)(F)F)c(Cl)cn2)s1 + CC(Nc1ncnc2nc[nH]c12)c1cc2cccc(Cl)c2c(=O)n1-c1ccccc1
pIC50 (second compound 0.0316 µM): < 5.00 | pIC50 (second compound 0.1 µM): < 5.00 | pIC50 (second compound 0.316 µM): < 5.00 | pIC50 (second compound 1 µM): < 5.00 | pIC50 (second compound 3.16 µM): < 5.00 | pIC50 (second compound 10 µM): < 5.00 | viability, T/C [1]: 100% | viability, T/C [2]: 129% | viability, T/C [3]: 109% | viability, T/C [4]: 104% | viability, T/C [5]: 101% | viability, T/C [6]: 98.9% | viability, T/C [7]: 123% | viability, T/C [8]: 112% | viability, T/C [9]: 90.5% | viability, T/C [10]: 102% | viability, T/C [11]: 110% | viability, T/C [12]: 117% | viability, T/C [13]: 92.5% | viability, T/C [14]: 102% | viability, T/C [15]: 109% | viability, T/C [16]: 107% | viability, T/C [17]: 96.9% | viability, T/C [18]: 110% | viability, T/C [19]: 114% | viability, T/C [20]: 97.8% | viability, T/C [21]: 99.7% | viability, T/C [22]: 90.7% | viability, T/C [23]: 127% | viability, T/C [24]: 106% | viability, T/C [25]: 95.9% | viability, T/C [26]: 92.2% | viability, T/C [27]: 106% | viability, T/C [28]: 92.8% | viability, T/C [29]: 97.3% | viability, T/C [30]: 113% | viability, T/C [31]: 79.7% | viability, T/C [32]: 97.2% | viability, T/C [33]: 106% | viability, T/C [34]: 97.1% | viability, T/C [35]: 107% | viability, T/C [36]: 119%

Cn1ncnc1[C@H]1c2n[nH]c(=O)c3cc(F)cc(c23)N[C@@H]1c1ccc(F)cc1 + CC(Nc1ncnc2nc[nH]c12)c1cc2cccc(Cl)c2c(=O)n1-c1ccccc1
pIC50 (second compound 0.0316 µM): < 7.00 | pIC50 (second compound 0.1 µM): < 7.00 | pIC50 (second compound 0.316 µM): < 7.00 | pIC50 (second compound 1 µM): < 7.00 | pIC50 (second compound 3.16 µM): < 7.00 | pIC50 (second compound 10 µM): < 7.00 | viability, T/C (second compound 0.0316 µM, first compound 0.000316 µM): 111% | viability, T/C (second compound 0.0316 µM, first compound 0.001 µM): 114% | viability, T/C (second compound 0.0316 µM, first compound 0.00316 µM): 90% | viability, T/C (second compound 0.0316 µM, first compound 0.01 µM): 107% | viability, T/C [1]: 84.7% | viability, T/C [2]: 86.7% | viability, T/C (second compound 0.1 µM, first compound 0.000316 µM): 103% | viability, T/C (second compound 0.1 µM, first compound 0.001 µM): 94.2% | viability, T/C (second compound 0.1 µM, first compound 0.00316 µM): 102% | viability, T/C (second compound 0.1 µM, first compound 0.01 µM): 109% | viability, T/C [7]: 93.4% | viability, T/C [8]: 89.5% | viability, T/C (second compound 0.316 µM, first compound 0.000316 µM): 83.5% | viability, T/C (second compound 0.316 µM, first compound 0.001 µM): 96.5% | viability, T/C (second compound 0.316 µM, first compound 0.00316 µM): 78.6% | viability, T/C (second compound 0.316 µM, first compound 0.01 µM): 83.4% | viability, T/C [13]: 102% | viability, T/C [14]: 79.2% | viability, T/C (second compound 1 µM, first compound 0.000316 µM): 122% | viability, T/C (second compound 1 µM, first compound 0.001 µM): 84.7% | viability, T/C (second compound 1 µM, first compound 0.00316 µM): 87.2% | viability, T/C (second compound 1 µM, first compound 0.01 µM): 91.7% | viability, T/C [19]: 108% | viability, T/C [20]: 104% | viability, T/C (second compound 3.16 µM, first compound 0.000316 µM): 73.7% | viability, T/C (second compound 3.16 µM, first compound 0.001 µM): 73.8% | viability, T/C (second compound 3.16 µM, first compound 0.00316 µM): 89.6% | viability, T/C (second compound 3.16 µM, first compound 0.01 µM): 71.1% | viability, T/C [25]: 83.3% | viability, T/C [26]: 87.8% | viability, T/C (second compound 10 µM, first compound 0.000316 µM): 89.5% | viability, T/C (second compound 10 µM, first compound 0.001 µM): 102% | viability, T/C (second compound 10 µM, first compound 0.00316 µM): 81.5% | viability, T/C (second compound 10 µM, first compound 0.01 µM): 76.4% | viability, T/C [31]: 78% | viability, T/C [32]: 73.5%
